Laboratory results reported in patent publication US20050236004A1, “Healthcare model of wellness” (priority 2004, published 2005).

Columns and labels:
[1] = cited from earlier work
[2] = first principles model of blood serum level of a drug over time
Excerpt: The relevant internal variables for the modal of FIG. 18 are: • Ingested amount=I • Blood amount=B
The relevant parameters for the model are: • Digestion rate=κ • Absorption rates=α,β • Conversion rate=γ • Excretion rate=ω
The model equations are then: dI/dt=−αI−κ dB/dt−−ωB−γ+αl+κ−βD dD/dt=κ−βD In most cases, these parameters are not available directly, but most infer them from values such as the excretion half-life T1/2 and the time of maximum blood levels, Tmax. For most medications, the digestion and conversion rates are small or zero, and, as such, it is only necessary to estimate the absorption and excretion rates α and ω. […] The system of equations is then given by: dI/dt=αl dB/dt=−ωB+αl which can be solved exactly for the case of a single ingested amount I0 by converting to matrix form: dV/dt=MV where V the column vector [I,B] and M is the coefficient matrix [−α,0][α,−ω]. This matrix equation has the solution: V=exp(Mt)V0 Where exp(Mt) is the exponentiation of M as a matrix taylor series, and V0 is the initial vector. Inserting M=PDP^−1 where D is a diagonal matrix in the taylor series gives: exp(Mt)=Pexp(Dt)P^−1 The eigenvalues are easily given by setting det(D−λI)=0 giving (−α−λ)(−ω−λ)=0, and so λ=−α,−ω D=[−α,0][0,−ω] Solving for the eigenvectors of comprising P gives the following relationship: P=[ω−α)/α,0][1,1] […]

[3] = in vivo

absorption coefficient α ([2]; computed from Tmax by iterative formula): 1.293 h⁻¹
excretion coefficient ω ([2]; ln(2)/half-life): 0.08547 h⁻¹
Cmax/AUC [3]: 0.1089
SMILES: Cc1onc(-c2ccccc2)c1-c1ccc(S(N)(=O)=O)cc1 [BEXTRA, Valdecoxib]
Cmin ([1]; at 14 day equilibrium): 21.9 ng/mL
Area_Under_Curve(24 hr) ([1]; given value, 24 hr): 1479.0 ng·h/mL
Cmax ([1]; given value): 161.1 ng/mL
Elimination Half-Life ([1]; given value): 8.11 h
Tmax ([1]; given value): 2.25 h
